Measured values published in paper PMC7566600, “Engineering Af1521 improves ADP-ribose binding and identification of ADP-ribosylated proteins” (Nature Communications, 2020).

Molecular target: T1, WT Af1521 macro domain (Archaeoglobus fulgidus, UniProt O28751)
T1 construct: gene AF_1521; macro domain, His-tagged
T1 sequence (O28751 1-192): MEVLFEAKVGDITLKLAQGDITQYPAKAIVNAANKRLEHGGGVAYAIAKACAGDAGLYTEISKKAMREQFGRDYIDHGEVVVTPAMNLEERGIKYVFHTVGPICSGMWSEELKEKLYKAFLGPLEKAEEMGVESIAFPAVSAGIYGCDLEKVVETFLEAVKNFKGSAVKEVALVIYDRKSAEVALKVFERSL
Test: SPR ([…] kinetic fit; steady-state fit gave […]), immobilized protein
Assay type: binding

Nc1ncnc2c1ncn2[C@@H]1O[C@H](COP(=O)(O)OP(=O)(O)OC[C@H]2O[C@H](O)[C@H](O)[C@@H]2O)[C@@H](O)[C@H]1O [ADP-ribose]
Kd: 2879 ± 9 nM
